# According to patent publication US20090270435A1 (priority 2006, published 2009):
# Where a name gives a salt, the structure may show the parent alone.
# Target: T1, ACC1 from rat liver (Rattus norvegicus, UniProt P11497)
# T1 construct: The livers (for ACC1 preparation) or skeletal muscle tissue (for ACC2 preparation) are removed; from tissue; host or cells: liver of male CD rats (fasted, then fed a high sucrose diet)
# Test: Direct inhibition of ACC1 activity (14C-bicarbonate incorporation)
# Format: biochemical
# Details: ACC1 from rat liver
# Method in brief: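 ACC1 partially purified from livers of fasted/sucrose-refed male rats by PEG and ammonium sulfate fractionation, then preincubated 30 min at 37°C with 10 mM citrate and 1.0 mM MgCl2. Reaction ran 7 min at 37°C, stopped with HCl; acid-stable radioactivity counted by scintillation; HCl-first tubes served as blanks.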
row,Compound,IC50
1,COc1ccc2c(c1)OC1(CCN(C(=O)c3cccc4cn[nH]c34)CC1)CC2=O [Ex. H21],2530 nM
2,"Cc1cc2c(cc1C)C(=O)CC1(CCN(C(=O)c3cccc4cc[nH]c34)CC1)O2 [Ex. L1, 1′-(1H-indol-7-ylcarbonyl)-6,7-dimethylspiro[chromene-2,4′-piperidin]-4(3H)-one trifluoroacetic acid salt]",190 nM
3,"1′-1H-indol ylcarbonyl)-6,7-dimethylspiro[chromene-2,4′-piperidin]-4(3H)-one trifluoroacetic acid salt [Ex. L14]",479 nM
4,"Cc1cc2c(cc1C)C(=O)CC1(CCN(C(=O)c3ccc4c(cnn4C)c3)CC1)O2 [Ex. D1, 6,7-dimethyl-1′-[(1-methyl-1H-indazol-5-yl)carbonyl]spiro[chromene-2,4′-piperidin]-4(3H)-one]",57.9 nM
5,"Cc1cc(C(=O)N2CCC3(CC2)CC(=O)c2cc(C(=O)O)ccc2O3)cc2cn[nH]c12 [Ex. A33, 1′-[(7-methyl-1H-indazol-5-yl)carbonyl]-4-oxo-3,4-dihydrospiro[chromene-2,4′-piperidine]-6-carboxylic acid trifluoroacetic acid salt]",303 nM
6,"COc1cc(C)cc2c1C(=O)CC1(CCN(C(=O)c3cccc4cn[nH]c34)CC1)O2 [Ex. H4, 1′-(1H-indazol-7-ylcarbonyl)-5-methoxy-7-methylspiro[chromene-2,4′-piperidin]-4(3H)-one]",279 nM
7,"Cc1cc2c(cc1C)C(=O)CC1(CCN(C(=O)c3cc(C)c4[nH]nc(C)c4c3)CC1)O2 [Ex. E3, 1′-[(3,7-dimethyl-1H-indazol-5-yl)carbonyl]-6,7-dimethylspiro[chromene-2,4′-piperidin]-4(3H)-one]",9.8 nM
8,"Cc1cc(C(=O)N2CCC3(CC2)CC(=O)c2cc(F)c(Cl)cc2O3)cc2cn[nH]c12 [Ex. A22, 7-chloro-6-fluoro-1′-[(7-methyl-1H-indazol-5-yl)carbonyl]spiro[chromene-2,4′-piperidin]-4(3H)-one]",104 nM
9,"Cc1cc(C)c2c(c1)C(=O)CC1(CCN(C(=O)c3cccc4cn[nH]c34)CC1)O2 [Ex. H13, 1′-(1H-indazol-7-ylcarbonyl)-6,8-dimethylspiro[chromen-2,4′-piperidin]-4(3H)-one]",1320 nM
10,"Cc1cc2c(cc1C)C(=O)CC1(CCN(C(=O)c3ccc4c(C)nn(C)c4c3)CC1)O2 [Ex. G3, 1′-[(1,3-dimethyl-1H-indazol-6-yl)carbonyl]-6,7-dimethylspiro[chromene-2,4′-piperidin]-4(3H)-one]",75.4 nM
11,"6-chloro-1′-[(7-chloro-1H-indazol-5-yl)carbonyl]spiro[chromene-2,4′-piperidin]-4(3H)-one [Ex. B8]",166 nM
12,"CCc1cc(C(=O)N2CCC3(CC2)CC(=O)c2c(OC)cc(C)cc2O3)cc2cn[nH]c12 [Ex. C3, 1′-[(7-ethyl-1H-indazol-5-yl)carbonyl]-5-methoxy-7-methylspiro[chromene-2,4′-piperidin]-4(3H)-one]",29.5 nM
13,"Cc1cc(C(=O)N2CCC3(CC2)CC(=O)c2cc(Cl)c(Cl)cc2O3)cc2cn[nH]c12 [Ex. A14, 6,7-dichloro-1′-[(7-methyl-1H-indazol-5-yl)carbonyl]spiro[chromene-2,4′-piperidin]-4(3H)-one]",52 nM

# The next lines start with the values.
row,IC50,Compound
1,47.3 nM,"COc1cccc2c1C(=O)CC1(CCN(C(=O)c3ccc4c(Cl)c[nH]c4c3)CC1)O2 [Ex. L6, 1′-[(3-chloro-1H-indol-6-yl)carbonyl]-5-methoxyspiro[chromene-2,4′-piperidin]-4(3H)-one]"
2,28.8 nM,"COc1cccc2c1C(=O)CC1(CCN(C(=O)c3ccc4[nH]c5c(c4c3)CCNC5=O)CC1)O2 [Ex. K2, 5-methoxy-1′-[(1-oxo-2,3,4,9-tetrahydro-1H-beta-carbolin-6-yl)carbonyl]spiro[chromene-2,4′-piperidin]-4(3H)-one]"
3,121 nM,"Cc1cc2c(cc1C)C(=O)CC1(CCN(C(=O)c3ccc4ncccc4c3)CC1)O2 [Ex. L43, 6,7-dimethyl-1′-(quinolin-6-ylcarbonyl)spiro[chromene-2,4′-piperidin]-4(3H)-one trifluoroacetic acid salt]"
4,< 1000 nM,"O=C1CC2(CCN(C(=O)c3ccc4[nH]nnc4c3)CC2)Oc2ccc(Cl)cc21 [Ex. L38, 1′-(1H-1,2,3-benzotriazol-5-ylcarbonyl)-6-chlorospiro[chromene-2,4′-piperidin]-4(3H)-one]"
5,> 1000 nM,"COc1c(C(=O)N2CCC3(CC2)CC(=O)c2cc(C)c(C)cc2O3)cc(Cl)c2nc(C)[nH]c12 [Ex. L27, 1′-[(4-chloro-7-methoxy-2-methyl-1H-benzimidazol-6-yl)carbonyl]-6,7-dimethylspiro[chromene-2,4′-piperidin]-4(3H)-one]"
6,113 nM,"COc1cccc2c1C(=O)CC1(CCN(C(=O)c3ccc4[nH]c(C)c(C)c4c3)CC1)O2 [Ex. L11, 1′-[(2,3-dimethyl-1H-indol-5-yl)carbonyl]-5-methoxyspiro[chromene-2,4′-piperidin]-4(3H)-one]"
7,< 3000 nM,"Cc1cc2c(cc1C)C(=O)CC1(CCN(C(=O)c3ccc4c(c3)nnn4C)CC1)O2 [Ex. L41, 6,7-dimethyl-1′-[(1-methyl-1H-1,2,3-benzotriazol-5-yl)carbonyl]spiro[chromene-2,4′-piperidin]-4(3H)-one]"
8,< 3000 nM,"Cc1nc2c(C(=O)N3CCC4(CC3)CC(=O)c3cc(C)c(C)cc3O4)cccc2[nH]1 [Ex. L19, 6,7-dimethyl-1′-[(2-methyl-1H-benzimidazol-4-yl)carbonyl]spiro[chromene-2,4′-piperidin]-4(3H)-one trifluoroacetic acid salt]"
9,83.3 nM,"Cc1cc2c(cc1C)C(=O)CC1(CCN(C(=O)c3ccc4ccn(C)c4c3)CC1)O2 [Ex. L4, 6,7-dimethyl-1′-[(1-methyl-1H-indol-6-yl)carbonyl]spiro[chromene-2,4′-piperidin]-4(3H)-one]"
10,891 nM,"O=C(O)c1ccc2c(c1)C(=O)CC1(CCN(C(=O)c3cccc(-c4cc[nH]n4)c3)CC1)O2 [Ex. N1, 4-oxo-1′-[3-(1H-pyrazol-3-yl)benzoyl]-3,4-dihydrospiro[chromene-2,4′-piperidine]-6-carboxylic acid trifluoroacetic acid salt]"
11,825 nM,"Cc1nc2cc(C(=O)N3CCC4(CC3)CC(=O)c3cc(C)c(C)cc3O4)ccc2[nH]1 [Ex. L24, 6,7-dimethyl-1′-[(2-methyl-1H-benzimidazol-5-yl)carbonyl]spiro[chromene-2,4′-piperidin]-4(3H)-one trifluoroacetic acid salt]"

# Same assay, conditions: Table of Examples M1-M36
row,IC50,Compound
1,179 nM,"O=C1CC2(CCN(C(=O)c3cccc(-c4cc[nH]n4)c3)CC2)Oc2ccc(C(=O)N3CCCC3)cc21 [Ex. M9, 1′-[3-(1H-pyrazol-3-yl)benzoyl]-6-(pyrrolidin-1-ylcarbonyl)spiro[chromene-2,4′-piperidin]-4(3H)-one]"
2,220 nM,"O=C1CC2(CCN(C(=O)c3cccc(-c4cc[nH]n4)c3)CC2)Oc2ccc(OC(F)(F)F)cc21 [Ex. M13, 1′-[3-(1H-pyrazol-3-yl)benzoyl]-6-(trifluoromethoxy)spiro[chromene-2,4′-piperidin]-4(3H)-one]"
3,545 nM,"COc1cccc2c1C(=O)CC1(CCN(C(=O)c3cccc(-c4cc[nH]n4)c3)CC1)O2 [Ex. M27, 5-methoxy-1′-[3-(1H-pyrazol-3-yl)benzoyl]spiro[chromene-2,4′-piperidin]-4(3H)-one]"
4,697 nM,"COc1cc2c(cc1OC)C(=O)CC1(CCN(C(=O)c3cccc(-c4cc[nH]n4)c3)CC1)O2 [Ex. M31, 6,7-Dimethoxy-1′-[3-(1H-pyrazol-3-yl)benzoyl]spiro[chromene-2,4′-piperidin]-4(3H)-one]"
5,201 nM,"Cc1cc2c(cc1Br)C(=O)CC1(CCN(C(=O)c3cccc(-c4cc[nH]n4)c3)CC1)O2 [Ex. M10, 6-bromo-7-methyl-1′-[3-(1H-pyrazol-3-yl)benzoyl]spiro[chromene-2,4′-piperidin]-4(3H)-one]"
6,129 nM,"COc1ccc2c(c1)C(=O)CC1(CCN(C(=O)c3cccc(-c4cc[nH]n4)c3)CC1)O2 [Ex. M6, 6-methoxy-1′-[3-(1H-pyrazol-3-yl)benzoyl]spiro[chromene-2,4′-piperidin]-4(3H)-one]"
7,478 nM,"O=C1CC2(CCN(C(=O)c3cccc(-c4cc[nH]n4)c3)CC2)Oc2cc(F)c(Cl)cc21 [Ex. M24, 6-chloro-7-fluoro-1′-[3-(1H-pyrazol-3-yl)benzoyl]spiro[chromene-2,4′-piperidin]-4(3H)-one]"
8,418 nM,"O=C1CC2(CCN(C(=O)c3cccc(-c4cc[nH]n4)c3)CC2)Oc2ccc(C(F)(F)F)cc21 [Ex. M19, 1′-[3-(1H-pyrazol-3-yl)benzoyl]-6-(trifluoromethyl)spiro[chromene-2,4′-piperidin]-4(3H)-one]"

# Same assay, conditions: Table of Examples P1-P15
row,IC50,Compound
1,215 nM,"Cc1cc2c(cc1C)C(=O)CC1(CCN(C(=O)c3cccc(-c4cc(C(F)(F)F)[nH]n4)c3)CC1)O2 [Ex. P1, 6,7-dimethyl-1′-{3-[5-(trifluoromethyl)-1H-pyrazol-3-yl]benzoyl}spiro-[chromene-2,4′-piperidin]-4(3H)-one]"
2,< 3000 nM,"CCOc1ccc(-c2cc[nH]n2)cc1C(=O)N1CCC2(CC1)CC(=O)c1cc(C)c(C)cc1O2 [Ex. P7, 1′-[2-ethoxy-5-(1H-pyrazol-3-yl)benzoyl]-6,7-dimethylspiro[chromene-2,4′-piperidin]-4(3H)-one trifluoroacetic acid salt]"
3,621 nM,"CCOc1ccc(-c2cc[nH]n2)cc1C(=O)N1CCC2(CC1)CC(=O)c1cc(C)c(C)cc1O2 [Ex. P8, 1′-[2-ethoxy-5-(1H-pyrazol-3-yl)benzoyl]-6,7-dimethylspiro[chromene-2,4′-piperidin]-4(3H)-one]"
4,< 3000 nM,"Cc1cc2c(cc1C)C(=O)CC1(CCN(C(=O)c3cc(-c4cc[nH]n4)ccc3O)CC1)O2 [Ex. P6, 1′-[2-hydroxy-5-(1H-pyrazol-3-yl)benzoyl]-6,7-dimethylspiro[chromene-2,4′-piperidin]-4(3H)-one trifluoroacetic acid salt]"
